In brackets after ≈: the same amount, converted by molar mass.
How the values were obtained:
[1] = Bulk stability under accelerated storage conditions (XRPD and HPLC); conditions: for Bulk (XRPD) / Purity, Bulk (HPLC): Solid state
Source text: Solids obtained after bulk stability study were characterized by XRPD and HPLC.

[2] = Hygroscopicity by DVS at 25° C.; assay type: physicochemical; conditions: for Desorp. (%) / Sorp. (%): DVS 25° C.
Procedure: Dynamic Vapor Sorption (DVS): DVS analysis was performed using Intrinsic. Analysis was performed using parameters as set forth below.
The hygroscopicity for Form C and Form F was examined. See, e.g., Table E.

[3] = Solubility study in aqueous media at 37° C. (HPLC of supernatants, pH); conditions: for solubility / solubility at 2 h / solubility at 24 h: 37 °C, thermodynamic from solid
Procedure: 2.01 mg of the free base Form C (equal to 2 mg free base after correction for water content) was weighed into 2 mL vial. 2.09 mg of the free base Form F (equal to 2 mg free base after correction for water content) was weighed into a 2 mL vial. I mL of aqueous media was added, respectively. These suspensions were stirred at 37° C. at a rate of 400 rpm. These suspensions were taken out after 2 h and 24 h, and then centrifuged at 14,000 rpm for 5 minutes. The supernatants were analyzed by HPLC. The pH of the supernatants were tested.

[4] = 25° C./92.5% RH in an open vial, 2 weeks
[5] = 25° C./92.5% RH in an open vial, 4 weeks
[6] = 40° C./75% RH in an open vial, 2 weeks
[7] = 40° C./75% RH in an open vial, 4 week
[8] = 60° C., tight container, 2 weeks
[9] = 60° C., tight container, 4 weeks
[10] = SGF, pH 2, simulated gastric fluid
[11] = pH 1.0 HCl solution (0.1N), pH 1, simulated gastric fluid
[12] = pH 4.5 acetate buffer (50 mM), pH 4.5, aqueous buffer
[13] = pH 6.8 phosphate buffer (50 mM), pH 6.8, aqueous buffer

SMILES: CN1C[C@H]2C[C@@]2(C#Cc2cc3ncnc(Nc4cccc(Cl)c4F)c3cc2NC(=O)/C=C/CN2CCOCC2)C1 [Form C]
- HPLC area Purity ([1]; 1 Month, 5° C.): 98.2%
- Water content ([1]; 1 Month, 5° C.): 0.5%
- impurity RRT0.967 ([1]; 1 Month, 5° C.): 0.07%
- impurity RRT0.971 ([1]; 1 Month, 5° C.): 0.08%
- impurity RRT1.20 ([1]; 1 Month, 5° C.): 0.06%
- impurity RRT1.24 ([1]; 1 Month, 5° C.): 1.4%
- impurity RRT1.26 ([1]; 1 Month, 5° C.): 0.13%
- impurity RRT1.28 ([1]; 1 Month, 5° C.): 0.11%
- HPLC area Purity ([1]; 1 Month, 25° C./60% RH): 98.2
- Water content ([1]; 1 Month, 25° C./60% RH): 0.4%
- impurity RRT0.967 ([1]; 1 Month, 25° C./60% RH): 0.07%
- impurity RRT0.971 ([1]; 1 Month, 25° C./60% RH): 0.08%
- impurity RRT1.20 ([1]; 1 Month, 25° C./60% RH): 0.06%
- impurity RRT1.24 ([1]; 1 Month, 25° C./60% RH): 1.4%
- impurity RRT1.26 ([1]; 1 Month, 25° C./60% RH): 0.13%
- impurity RRT1.28 ([1]; 1 Month, 25° C./60% RH): 0.11%
- HPLC area Purity ([1]; 1 Month, 40° C./75% RH): 98.2%
- Water content ([1]; 1 Month, 40° C./75% RH): 0.7%
- impurity RRT0.967 ([1]; 1 Month, 40° C./75% RH): 0.08%
- impurity RRT0.971 ([1]; 1 Month, 40° C./75% RH): 0.08%
- impurity RRT1.20 ([1]; 1 Month, 40° C./75% RH): 0,07%
- impurity RRT1.24 ([1]; 1 Month, 40° C./75% RH): 1.4%
- impurity RRT1.26 ([1]; 1 Month, 40° C./75% RH): 0.13%
- impurity RRT1.28 ([1]; 1 Month, 40° C./75% RH): 0.11%
- HPLC area Purity ([1]; Initial): 98.1
- Water content ([1]; Initial): 0.4%
- impurity RRT0.967 ([1]; Initial): 0.09%
- impurity RRT0.971 ([1]; Initial): 0.06%
- impurity RRT1.20 ([1]; Initial): 0.06%
- impurity RRT1.24 ([1]; Initial): 1.4%
- impurity RRT1.26 ([1]; Initial): 0.13%
- impurity RRT1.28 ([1]; Initial): 0.12%
- impurity RrRT1.12 ([1]; Initial): 0.05%
- polymorph ([1]; Initial): Form C
- Bulk (XRPD) [1, 4]: No form change
- Purity, Bulk (HPLC) [1, 4]: 96.6%
- Bulk (XRPD) [1, 5]: No form change
- Purity, Bulk (HPLC) [1, 5]: 96.4%
- Bulk (XRPD) [1, 6]: No form change
- Purity, Bulk (HPLC) [1, 6]: 95.5%
- Bulk (XRPD) [1, 7]: No form change
- Purity, Bulk (HPLC) [1, 7]: 94.6%
- Bulk (XRPD) [1, 8]: No form change
- Purity, Bulk (HPLC) [1, 8]: 95.5%
- Bulk (XRPD) [1, 9]: No form change
- Purity, Bulk (HPLC) [1, 9]: 93.3%
- form change after bulk stability study (XRPD) ([1]; three accelerated conditions, two weeks and four weeks): do not change forms
- DVS water uptake at 90% RH ([2]; 25° C., dm/dt = 0.002%): 1.6% water uptake at 90% RH
- DVS water uptake at 95% RH ([2]; 25° C., dm/dt = 0.002%): 2.3% water uptake at 95% RH
- Desorp. (%) ([2]; Relative Humidity 0%, first Desorp.): 0.2%
- Sorp. (%) ([2]; Relative Humidity 0%, first Sorp.): 0.2%
- Desorp. (%) ([2]; Relative Humidity 0%, second Desorp.): 0.0%
- Sorp. (%) ([2]; Relative Humidity 0%, second Sorp.): 0.0%
- Desorp. (%) ([2]; Relative Humidity 10%, first Desorp.): 0.3%
- Sorp. (%) ([2]; Relative Humidity 10%, first Sorp.): 0.2%
- Desorp. (%) ([2]; Relative Humidity 10%, second Desorp.): 0.1%
- Sorp. (%) ([2]; Relative Humidity 10%, second Sorp.): 0.1%
- Desorp. (%) ([2]; Relative Humidity 20%, first Desorp.): 0.4%
- Sorp. (%) ([2]; Relative Humidity 20%, first Sorp.): 0.3%
- Desorp. (%) ([2]; Relative Humidity 20%, second Desorp.): 0.2%
- Sorp. (%) ([2]; Relative Humidity 20%, second Sorp.): 0.2%
- Desorp. (%) ([2]; Relative Humidity 30%, first Desorp.): 0.5%
- Sorp. (%) ([2]; Relative Humidity 30%, first Sorp.): 0.4%
- Desorp. (%) ([2]; Relative Humidity 30%, second Desorp.): 0.3%
- Sorp. (%) ([2]; Relative Humidity 30%, second Sorp.): 0.3%
- Desorp. (%) ([2]; Relative Humidity 40%, first Desorp.): 0.5%
- Sorp. (%) ([2]; Relative Humidity 40%, first Sorp.): 0.4%
- Desorp. (%) ([2]; Relative Humidity 40%, second Desorp.): 0.4%
- Sorp. (%) ([2]; Relative Humidity 40%, second Sorp.): 0.3%
- Sorp. (%) ([2]; Relative Humidity 50%, first Sorp.): 0.5%
- Desorp. (%) ([2]; Relative Humidity 50%, second Desorp.): 0.6%
- Sorp. (%) ([2]; Relative Humidity 60%, first Sorp.): 0.6%
- Desorp. (%) ([2]; Relative Humidity 60%, second Desorp.): 1.1%
- Sorp. (%) ([2]; Relative Humidity 70%, first Sorp.): 0.8%
- Desorp. (%) ([2]; Relative Humidity 70%, second Desorp.): 1.4%
- Sorp. (%) ([2]; Relative Humidity 80%, first Sorp.): 1.2%
- Desorp. (%) ([2]; Relative Humidity 80%, second Desorp.): 1.7%
- Sorp. (%) ([2]; Relative Humidity 90%, first Sorp.): 1.8%
- Desorp. (%) ([2]; Relative Humidity 90%, second Desorp.): 2.2%
- Sorp. (%) ([2]; Relative Humidity 95%, first Sorp.): 2.5%
- Desorp. (%) ([2]; Relative Humidity 95%, second Desorp.): 2.5%
- XRPD after DVS test ([2]; DVS at 25° C.): No form change
- stability in FaSSIF-v1 ([3]; 37° C., FaSSIF-v1): degraded
- stability in FeSSIF-v1 ([3]; 37° C., FeSSIF-v1): degraded
- 2 h Solubility ([3]; FaSSIF-v1, pH 6.5, 37° C.): Degradation
- 24 h Solubility ([3]; FaSSIF-v1, pH 6.5, 37° C.): Degradation
- 2 h Solubility ([3]; FeSSIF-v1, pH 5.0, 37° C.): Degradation
- 24 h Solubility ([3]; FeSSIF-v1, pH 5.0, 37° C.): Degradation
- solubility [3, 10]: > 2000 µg/mL
- solubility at 2 h [3, 10]: > 2000 µg/mL
- solubility at 24 h [3, 10]: > 2000 µg/mL
- 24 h (pH) of supernatant ([3]; SGF, pH 2.0, 37° C.): pH 3.7
- 24 h (pH) of supernatant ([3]; Water, 37° C.): pH 7.4
- 24 h (pH) of supernatant ([3]; pH 1.0 (0.1N HCl), 37° C.): pH 1.0
- solubility at 2 h [3, 11]: > 2000 µg/mL
- solubility at 24 h [3, 11]: > 2000 µg/mL
- solubility ([3]; pH 1.0 HCl solution, pH 1, simulated gastric fluid): > 2000 µg/mL
- 24 h (pH) of supernatant ([3]; pH 4.5 (50 mM) acetate buffer, 37° C.): pH 4.5
- solubility [3, 12]: > 2000 µg/mL
- solubility at 2 h [3, 12]: 2000 µg/mL (≈ 3560 µM)
- solubility at 24 h [3, 12]: > 2000 µg/mL
- 24 h (pH) of supernatant ([3]; pH 6.8 (50 mM) phosphate buffer, 37° C.): pH 6.7
- solubility [3, 13]: ~20 µg/mL (≈ 35.6 µM)
- solubility at 2 h [3, 13]: 20.4 µg/mL (≈ 36.4 µM)
- solubility at 24 h [3, 13]: 16.5 µg/mL (≈ 29.4 µM)
- solubility ([3]; pure water, water): < 10 µg/mL
- solubility at 2 h ([3]; water): 1.6 µg/mL (≈ 2.85 µM)
- solubility at 24 h ([3]; water): 2 µg/mL (≈ 3.56 µM)
